Laboratory results as given in patent US6203813A, “Pharmaceutical delivery device and method of preparation therefor” (priority 1998, dated 2001).
Entries after “also recorded” stand apart in the source; their conditions may differ.

Columns and labels:
rats [1] = details: 50 mg pellets containing 10 mg naloxone or naltrexone as base; cited from earlier work
male rats = details: pentobarbital injection; naltrexone by injection vs pellet; cited from earlier work
patients = details: cited from earlier work
[2] = cited from earlier work
[3] = Patients' blood levels of naltrexone and 6-beta-naltrexone after subcutaneous pellet implant; assay type: in vivo, human
opiate addicts = test: Relapse studies after opiate reversal under general anesthesia (telephone follow-up); assay type: in vivo, human
rats [4] = details: chronic naltrexone exposure; cited from earlier work

C=CCN1CC[C@]23c4c5ccc(O)c4O[C@H]2C(=O)CC[C@@]3(O)[C@H]1C5 [naloxone, N-allylnoroxymorphone]
analgesia on repeated painful stimulation (rats [1]): repeated painful stimulation results in analgesia in rats treated with an opiate antagonist

O=C1CC[C@@]2(O)[C@H]3Cc4ccc(O)c5c4[C@@]2(CCN3CC2CC2)[C@H]1O5 [naltrexone, N-cyclopropylmethylnoroxy morphone]
pentobarbital sleeping time (male rats): increasingly antagonized after naltrexone administration by injection
addiction liability (patients; human, in vivo): neither addicting nor habit-forming
euphoric effects / effects on stopping the drug (patients; human, in vivo): provides no euphoric effects and there are no observable pharmacological consequences when a patient stops taking the drug
side-effects (patients; use in humans): free of severe side-effects
analgesia on repeated painful stimulation (rats [1]): repeated painful stimulation results in analgesia in rats treated with an opiate antagonist
level in bloodstream after leveling off, oral ([2]; 1000 mg naltrexone orally, after 48 hours / two days): 0 ng/mL
duration of the 100 ng/ml level, oral ([2]; 1000 mg naltrexone orally): 48 h
level in patient's bloodstream, oral ([2]; 1000 mg naltrexone orally, for 48 hours): 100 ng/mL
undesirable side effects of conventional oral delivery ([2]; at approximately 100 ng/l in the blood stream): undesirable side effects such as an unpleasant feeling
duration of therapeutically effective naltrexone level in bloodstream ([3]; 1000 mg dose, inventive implant, ~2-8 ng/ml): approximately eighty
Ntx level ([3]; 78 days since implant, patients' blood, pellet of Examples 1-4, listed as Ntx, 112320 min): 6 ng/mL
concentration at 1920 h ([3]; human, blood, sc, 1000 mg, inventive implant, leveling off, for approximately eighty days, read-out: level of naltrexone in patient's bloodstream): 2 to 8 ng/mL
concentration at 192 h ([3]; human, blood, sc, 8 days since implant, patients' blood, pellet of Examples 1-4, read-out: Ntx level): 7 ng/mL
concentration at 336 h ([3]; human, blood, sc, 14 days since implant, patients' blood, pellet of Examples 1-4, read-out: Ntx level): 11 ng/mL
concentration at 528 h ([3]; human, blood, sc, 22 days since implant, patients' blood, pellet of Examples 1-4, read-out: Ntx level): 7 ng/mL
concentration at 672 h ([3]; human, blood, sc, 28 days since implant, patients' blood, pellet of Examples 1-4, read-out: Ntx level): 2 ng/mL
concentration at 696 h ([3]; human, blood, sc, 29 days since implant, patients' blood, pellet of Examples 1-4, read-out: Ntx level): 2 ng/mL
concentration at 768 h ([3]; human, blood, sc, 32 days since implant, patients' blood, pellet of Examples 1-4, read-out: Ntx level): 7 ng/mL
concentration at 792 h ([3]; human, blood, sc, 33 days since implant, patients' blood, pellet of Examples 1-4, read-out: Ntx level): < 2 ng/mL
concentration at 816 h ([3]; human, blood, sc, 34 days since implant, patients' blood, pellet of Examples 1-4, read-out: Ntx level): 4 ng/mL
concentration at 840 h ([3]; human, blood, sc, 35 days since implant, patients' blood, pellet of Examples 1-4, read-out: Ntx level): 4 ng/mL
concentration at 888 h ([3]; human, blood, sc, 37 days since implant, patients' blood, pellet of Examples 1-4, read-out: Ntx level): < 3 ng/mL
concentration at 912 h ([3]; human, blood, sc, 38 days since implant, patients' blood, pellet of Examples 1-4, read-out: Ntx level): < 2 ng/mL
concentration at 936 h ([3]; human, blood, sc, 39 days since implant, patients' blood, pellet of Examples 1-4, read-out: Ntx level): 5 ng/mL
concentration at 1008 h ([3]; human, blood, sc, 42 days since implant, patients' blood, pellet of Examples 1-4, read-out: Ntx level): 4 ng/mL
concentration at 1176 h ([3]; human, blood, sc, 49 days since implant, patients' blood, pellet of Examples 1-4, read-out: Ntx level): 4 ng/mL
concentration at 1224 h ([3]; human, blood, sc, 51 days since implant, patients' blood, pellet of Examples 1-4, read-out: Ntx level): 8 ng/mL
concentration at 1320 h ([3]; human, blood, sc, 55 days since implant, patients' blood, pellet of Examples 1-4, read-out: Ntx level): 36 ng/mL
concentration at 1440 h ([3]; human, blood, sc, 60 days since implant, patients' blood, pellet of Examples 1-4, read-out: Ntx level): 10 ng/mL
concentration at 1488 h ([3]; human, blood, sc, 62 days since implant, patients' blood, pellet of Examples 1-4, read-out: Ntx level): < 4 ng/mL
concentration at 1560 h ([3]; human, blood, sc, 65 days since implant, patients' blood, pellet of Examples 1-4, read-out: Ntx level): < 2 ng/mL
concentration at 1680 h ([3]; human, blood, sc, 70 days since implant, patients' blood, pellet of Examples 1-4, read-out: Ntx level): 3 ng/mL
concentration at 1848 h ([3]; human, blood, sc, 77 days since implant, patients' blood, pellet of Examples 1-4, read-out: Ntx level): 2 ng/mL
concentration at 1872 h ([3]; human, blood, sc, 78 days since implant, patients' blood, pellet of Examples 1-4, read-out: Ntx level): 4 ng/mL
patients using opiates, assuming all not contacted were using (opiate addicts; one month after opiate reversal, DNM versus ONM, x2=0.76 (not significant)): 54%
patients using opiates, excluding those who could not be contacted (opiate addicts; one month follow-up after ORGA, DNM 1000 mg per month pellet versus ONM 50 mg per day oral, x2=14.06 (very significant)): 44%
behavioral sensitivity / morphine-induced hyperactivity after chronic naltrexone (rats [4]): produces behavioral supersensitivity to morphine-induced reinforcement and hyperactivity; also recorded: potentiated morphine-induced hyperactivity in rats
